The target in one assay is T1, Nitric oxide synthase 3 (Bos taurus, UniProt P29473).
T1 sequence (P29473 whole entry): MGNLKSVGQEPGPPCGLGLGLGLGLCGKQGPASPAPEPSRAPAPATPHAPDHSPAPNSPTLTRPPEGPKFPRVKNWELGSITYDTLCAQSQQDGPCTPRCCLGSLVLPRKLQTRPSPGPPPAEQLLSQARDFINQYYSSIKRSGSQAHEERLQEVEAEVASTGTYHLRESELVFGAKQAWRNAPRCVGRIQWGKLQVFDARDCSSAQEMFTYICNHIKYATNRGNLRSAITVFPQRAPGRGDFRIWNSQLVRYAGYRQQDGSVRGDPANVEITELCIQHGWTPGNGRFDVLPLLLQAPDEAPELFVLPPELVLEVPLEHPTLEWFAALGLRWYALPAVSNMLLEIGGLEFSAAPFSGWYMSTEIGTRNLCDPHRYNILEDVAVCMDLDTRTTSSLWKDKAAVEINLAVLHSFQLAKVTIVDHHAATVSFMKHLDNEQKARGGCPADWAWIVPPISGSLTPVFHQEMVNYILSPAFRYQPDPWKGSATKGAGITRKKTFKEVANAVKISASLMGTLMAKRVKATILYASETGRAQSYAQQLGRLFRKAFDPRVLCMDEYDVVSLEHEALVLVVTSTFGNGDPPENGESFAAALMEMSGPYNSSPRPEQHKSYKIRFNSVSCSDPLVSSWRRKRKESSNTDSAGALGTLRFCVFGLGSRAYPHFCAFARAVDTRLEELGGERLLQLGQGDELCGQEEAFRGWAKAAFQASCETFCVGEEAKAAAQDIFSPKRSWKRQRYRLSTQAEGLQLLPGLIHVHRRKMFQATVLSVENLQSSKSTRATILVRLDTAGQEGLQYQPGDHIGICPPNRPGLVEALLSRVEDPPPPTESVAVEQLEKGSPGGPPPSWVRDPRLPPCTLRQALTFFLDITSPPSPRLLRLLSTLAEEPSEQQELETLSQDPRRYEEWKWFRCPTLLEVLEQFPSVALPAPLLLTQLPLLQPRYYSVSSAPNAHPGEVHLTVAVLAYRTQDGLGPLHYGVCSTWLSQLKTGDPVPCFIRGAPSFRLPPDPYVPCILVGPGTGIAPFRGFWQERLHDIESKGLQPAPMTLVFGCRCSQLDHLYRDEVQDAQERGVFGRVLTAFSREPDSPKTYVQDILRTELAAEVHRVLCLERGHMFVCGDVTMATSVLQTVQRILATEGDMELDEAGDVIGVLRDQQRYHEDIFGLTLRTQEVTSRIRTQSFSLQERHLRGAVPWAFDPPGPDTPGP

In assay [1] the target is T2, Nitric oxide synthase, inducible (Mus musculus, UniProt P29477).
T2 sequence (P29477 whole entry): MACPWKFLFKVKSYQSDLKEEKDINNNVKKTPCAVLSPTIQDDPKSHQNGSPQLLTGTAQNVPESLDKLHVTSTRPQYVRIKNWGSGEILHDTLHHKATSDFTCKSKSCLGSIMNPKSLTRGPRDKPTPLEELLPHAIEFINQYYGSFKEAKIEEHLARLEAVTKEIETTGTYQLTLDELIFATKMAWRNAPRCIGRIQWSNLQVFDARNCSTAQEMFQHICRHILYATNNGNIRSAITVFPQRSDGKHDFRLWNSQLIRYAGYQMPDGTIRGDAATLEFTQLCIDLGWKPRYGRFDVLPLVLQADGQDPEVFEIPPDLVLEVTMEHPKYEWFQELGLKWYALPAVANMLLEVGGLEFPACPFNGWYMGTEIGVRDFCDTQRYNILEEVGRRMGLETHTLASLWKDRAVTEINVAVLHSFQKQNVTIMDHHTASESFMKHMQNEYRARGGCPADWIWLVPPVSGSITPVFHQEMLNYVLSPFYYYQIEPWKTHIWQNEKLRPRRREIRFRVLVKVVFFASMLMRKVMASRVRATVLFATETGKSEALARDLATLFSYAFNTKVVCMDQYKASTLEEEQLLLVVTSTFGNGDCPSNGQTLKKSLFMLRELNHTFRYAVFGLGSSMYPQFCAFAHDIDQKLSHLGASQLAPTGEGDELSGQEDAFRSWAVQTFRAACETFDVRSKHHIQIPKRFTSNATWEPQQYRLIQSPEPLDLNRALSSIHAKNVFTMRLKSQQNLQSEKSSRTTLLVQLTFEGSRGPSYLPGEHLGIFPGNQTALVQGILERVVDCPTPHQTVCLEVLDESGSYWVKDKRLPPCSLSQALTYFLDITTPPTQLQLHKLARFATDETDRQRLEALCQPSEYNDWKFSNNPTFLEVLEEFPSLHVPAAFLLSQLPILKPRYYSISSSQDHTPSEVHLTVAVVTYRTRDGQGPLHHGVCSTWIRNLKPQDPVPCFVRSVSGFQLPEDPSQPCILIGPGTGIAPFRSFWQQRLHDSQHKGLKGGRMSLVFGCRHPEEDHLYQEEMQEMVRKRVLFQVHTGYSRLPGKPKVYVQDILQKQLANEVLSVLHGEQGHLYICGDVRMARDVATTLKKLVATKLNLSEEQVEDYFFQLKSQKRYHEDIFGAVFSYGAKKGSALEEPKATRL
Description: Inhibition of mouse recombinant iNOS expressed in Escherichia coli by hemoglobin capture assay

In another assay the target is Nitric oxide synthase 1 (Rattus norvegicus, UniProt P29476).
Sequence of Nitric oxide synthase 1 (P29476 whole entry): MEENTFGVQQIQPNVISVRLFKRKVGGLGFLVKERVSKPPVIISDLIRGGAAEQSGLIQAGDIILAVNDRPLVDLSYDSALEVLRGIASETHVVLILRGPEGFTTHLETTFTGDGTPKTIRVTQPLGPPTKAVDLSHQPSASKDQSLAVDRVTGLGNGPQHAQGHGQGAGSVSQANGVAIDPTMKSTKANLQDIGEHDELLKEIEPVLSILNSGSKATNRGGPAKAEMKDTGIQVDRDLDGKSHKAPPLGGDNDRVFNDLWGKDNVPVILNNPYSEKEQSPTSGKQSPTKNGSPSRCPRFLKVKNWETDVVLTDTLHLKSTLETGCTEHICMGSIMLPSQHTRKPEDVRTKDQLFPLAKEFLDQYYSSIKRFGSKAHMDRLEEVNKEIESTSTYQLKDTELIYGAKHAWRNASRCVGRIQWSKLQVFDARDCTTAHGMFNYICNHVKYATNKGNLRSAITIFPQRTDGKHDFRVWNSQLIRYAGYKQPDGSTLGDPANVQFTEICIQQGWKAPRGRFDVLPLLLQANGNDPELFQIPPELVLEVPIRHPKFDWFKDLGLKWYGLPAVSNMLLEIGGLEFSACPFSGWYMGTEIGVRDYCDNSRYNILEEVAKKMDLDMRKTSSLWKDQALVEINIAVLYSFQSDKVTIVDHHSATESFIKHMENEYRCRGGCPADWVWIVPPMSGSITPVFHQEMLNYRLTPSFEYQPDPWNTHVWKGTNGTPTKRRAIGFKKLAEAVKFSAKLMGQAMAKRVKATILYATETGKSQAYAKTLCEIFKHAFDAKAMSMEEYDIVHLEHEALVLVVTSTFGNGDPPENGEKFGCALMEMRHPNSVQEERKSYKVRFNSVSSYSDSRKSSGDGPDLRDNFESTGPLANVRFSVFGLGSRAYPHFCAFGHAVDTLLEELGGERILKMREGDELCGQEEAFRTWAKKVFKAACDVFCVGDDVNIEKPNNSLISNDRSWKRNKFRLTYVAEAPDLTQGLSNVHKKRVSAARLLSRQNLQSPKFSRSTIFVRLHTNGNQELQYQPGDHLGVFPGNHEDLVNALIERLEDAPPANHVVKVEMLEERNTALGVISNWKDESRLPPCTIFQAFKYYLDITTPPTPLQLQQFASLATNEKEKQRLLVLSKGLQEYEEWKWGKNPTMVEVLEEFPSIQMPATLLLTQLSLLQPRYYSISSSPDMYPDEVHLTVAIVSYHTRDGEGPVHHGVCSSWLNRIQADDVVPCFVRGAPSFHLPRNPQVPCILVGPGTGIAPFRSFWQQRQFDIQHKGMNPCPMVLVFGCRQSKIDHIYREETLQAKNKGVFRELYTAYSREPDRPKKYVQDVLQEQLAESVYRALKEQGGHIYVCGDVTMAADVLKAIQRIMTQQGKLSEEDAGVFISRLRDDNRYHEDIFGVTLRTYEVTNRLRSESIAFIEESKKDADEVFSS

Description for Nitric oxide synthase 1: Inhibition of rat recombinant nNOS expressed in Escherichia coli by hemoglobin capture assay
Description for Nitric oxide synthase 3: Inhibition of bovine recombinant eNOS expressed in Escherichia coli by hemoglobin capture assay

For `CC(=O)[C@@H]1C[C@@H](NC(=O)[C@@H](N)CCCNC(=N)N[N+](=O)[O-])CN1`, the results for the Ki (on Nitric oxide synthase 3; in assay [1]; on Nitric oxide synthase 1) were 128 µM, 29 µM and 100 nM, respectively.
Take `CC(=O)[C@H]1CNC[C@@H]1NC(=O)[C@@H](N)CCCNC(=N)N[N+](=O)[O-]`: the inhibition constant (Ki) at Nitric oxide synthase 3 came out at 200 µM; in assay [1], 5.76 µM; at Nitric oxide synthase 1, 87 nM.
As for `Nc1cccc(C[C@H]2CNC[C@H]2N[C@@H]2CCNC2)n1` (racemic), the figures for the Ki (on Nitric oxide synthase 3; in assay [1]; on Nitric oxide synthase 1) were 424 µM, 200 µM and 1360 nM, respectively.
The like results for `Nc1cccc(C[C@H]2CNC[C@H]2N[C@@H]2CCN(Cc3ccccc3)C2)n1` (racemic) were, in that order, 181 µM, 425 µM and 2740 nM.
The like results for `Nc1cccc(C[C@H]2CNC[C@H]2N[C@H]2CCN(Cc3ccccc3)C2)n1` (racemic) were, in that order, 108 µM, 222 µM and 3340 nM.
At Nitric oxide synthase 1, `Cc1cc(N)nc(C[C@H]2CNC[C@H]2NCCNCc2cccc(C(F)(F)F)c2)c1` (racemic) showed a Ki of 206 nM.
On to `Cc1cccc(CNCCN[C@@H]2CNC[C@@H]2Cc2cc(C)cc(N)n2)c1` (racemic), for which the figures for the Ki (on Nitric oxide synthase 3; in assay [1]; at Nitric oxide synthase 1) were 72 µM, 9.01 µM and 159 nM, respectively.
The like results for `Cc1cc(N)nc(C[C@H]2CNC[C@H]2NCCNCc2ccc(Cl)c(Cl)c2)c1` (racemic) were, in that order, 41 µM, 3.56 µM and 157 nM.
The like results for `Cc1cc(N)nc(C[C@H]2CNC[C@H]2NCCNCc2ccc(Cl)cc2Cl)c1` (racemic) were, in that order, 30 µM, 7.7 µM and 110 nM.
The like results for `Cc1cc(N)nc(C[C@H]2CNC[C@H]2NC[C@H](C)NCc2ccc(Cl)cc2)c1` (racemic) were, in that order, 40 µM, 12.2 µM and 136 nM.
In the case of `Cc1cc(N)nc(C[C@H]2CNC[C@H]2NCCNCc2ccc(C(F)(F)F)cc2)c1` (racemic), the Ki on Nitric oxide synthase 3 stood at 84 µM; in assay [1] it was 14.1 µM; on Nitric oxide synthase 1, 197 nM.
Consider `Cc1cc(N)nc(C[C@H]2CNC[C@H]2NCCNCc2ccc(F)cc2)c1` (racemic), for which the results for the Ki (at Nitric oxide synthase 3; in assay [1]; on Nitric oxide synthase 1) were 130 µM, 7.97 µM and 144 nM, respectively.
The like results for `Cc1cc(N)nc(C[C@H]2CNC[C@H]2NCCNCCc2ccc(F)cc2)c1` (racemic) were, in that order, 18 µM, 4.6 µM and 27 nM.
The like results for `Cc1cc(C[C@H]2CNC[C@H]2NCCNCc2ccc(Cl)cc2)cc(N)n1` (racemic) were, in that order, 141 µM, 232 µM and 18800 nM.
On to `Cc1cc(N)nc(C[C@H]2CNC[C@H]2N(C)CCNCCc2cccc(F)c2)c1` (racemic), for which the values for the Ki (on Nitric oxide synthase 3; in assay [1]; at Nitric oxide synthase 1) were 92.4 µM, 38.2 µM and 326 nM, respectively.
The like results for `Nc1cccc(C[C@H]2CNC[C@H]2NC[C@H](N)Cc2ccccc2)n1` (racemic) were, in that order, 1450 µM, 238 µM and 2420 nM.
The like results for `Nc1cccc(C[C@H]2CNC[C@H]2NC[C@@H](N)Cc2ccccc2)n1` (racemic) were, in that order, 1450 µM, 297 µM and 2300 nM.
Regarding `Cc1cc(N)nc(C[C@H]2CNC[C@H]2N(C)CCNCc2ccc(Cl)cc2)c1` (racemic), affinity at Nitric oxide synthase 3 was put at a Ki of 125 µM.
In the case of `Nc1cccc(C[C@H]2CNC[C@H]2N[C@H]2CCNC2)n1` (racemic), the Ki was 243 µM on Nitric oxide synthase 3, 174 µM in assay [1] and 1260 nM on Nitric oxide synthase 1.
The like results for `Nc1cccc(C[C@H]2CNC[C@H]2NCCNCc2ccccc2)n1` (racemic) were, in that order, 1450 µM, 161 µM and 1180 nM.
The like results for `Cc1cc(C[C@H]2CNC[C@H]2NCCNCCc2cccc(F)c2)cc(N)n1` (racemic) were, in that order, 164 µM, 10.6 µM and 551 nM.
The like results for `Cc1cc(N)nc(C[C@H]2CNC[C@H]2N(C)CCN(C)CCc2cccc(F)c2)c1` (racemic) were, in that order, 48.9 µM, 56.6 µM and 1210 nM.
Consider `CN(C)CCN[C@@H]1CNC[C@@H]1Cc1cccc(N)n1` (racemic), for which the results for the Ki (at Nitric oxide synthase 3; in assay [1]; at Nitric oxide synthase 1) were 140 µM, 195 µM and 3330 nM, respectively.

One may read the Ki as a dissociation constant, usually derived from enzyme kinetics or from competition with a known ligand. Read a high Ki as lower affinity.
